Laboratory results taken from ChEMBL document CHEMBL1154377, “Evaluation of basic, heterocyclic ring systems as templates for use as potassium competitive acid blockers (pCABs)” (Bioorg Med Chem Lett, 2009).

Columns and labels:
[1] = Inhibition of H+/K+ ATPase at pH 7.4
[2] = target: T1, Cytochrome P450 1A2 (Homo sapiens, UniProt P05177); test: Inhibition of CYP1A2; format: ADME
T1 sequence (P05177 whole entry): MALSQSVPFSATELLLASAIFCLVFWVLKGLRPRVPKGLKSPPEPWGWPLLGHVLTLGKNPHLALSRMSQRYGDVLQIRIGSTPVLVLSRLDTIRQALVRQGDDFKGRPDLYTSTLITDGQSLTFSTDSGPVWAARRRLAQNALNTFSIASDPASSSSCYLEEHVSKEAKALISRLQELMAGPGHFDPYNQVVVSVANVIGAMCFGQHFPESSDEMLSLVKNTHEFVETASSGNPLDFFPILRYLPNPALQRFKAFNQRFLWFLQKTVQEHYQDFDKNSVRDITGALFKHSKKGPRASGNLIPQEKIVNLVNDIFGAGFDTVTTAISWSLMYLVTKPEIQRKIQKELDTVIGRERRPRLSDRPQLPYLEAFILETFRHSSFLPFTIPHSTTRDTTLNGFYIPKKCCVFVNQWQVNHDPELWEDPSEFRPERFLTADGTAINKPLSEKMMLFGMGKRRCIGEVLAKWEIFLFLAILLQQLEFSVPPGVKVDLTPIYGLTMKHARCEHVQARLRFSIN

[3] = target: Cytochrome P450 2C19 (Homo sapiens, UniProt P33261); test: Inhibition of CYP2C19; format: ADME
Cytochrome P450 2C19, sequence (P33261 whole entry): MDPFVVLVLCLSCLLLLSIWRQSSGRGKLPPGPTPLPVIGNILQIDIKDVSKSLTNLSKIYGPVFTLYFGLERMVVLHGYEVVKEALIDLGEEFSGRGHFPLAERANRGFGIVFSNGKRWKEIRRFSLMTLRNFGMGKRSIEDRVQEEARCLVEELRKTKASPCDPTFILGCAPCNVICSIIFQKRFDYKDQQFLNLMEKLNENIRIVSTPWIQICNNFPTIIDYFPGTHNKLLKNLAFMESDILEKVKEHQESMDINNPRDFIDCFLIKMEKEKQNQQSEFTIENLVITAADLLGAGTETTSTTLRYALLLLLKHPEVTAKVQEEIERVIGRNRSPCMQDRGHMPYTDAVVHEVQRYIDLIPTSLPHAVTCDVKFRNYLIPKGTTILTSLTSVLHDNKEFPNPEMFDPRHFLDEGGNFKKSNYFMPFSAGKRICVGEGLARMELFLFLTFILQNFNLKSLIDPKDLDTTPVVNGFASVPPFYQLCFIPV

[4] = target: Cytochrome P450 2D6 (Homo sapiens, UniProt P10635); test: Inhibition of CYP2D6; format: ADME
Cytochrome P450 2D6, sequence (P10635 whole entry): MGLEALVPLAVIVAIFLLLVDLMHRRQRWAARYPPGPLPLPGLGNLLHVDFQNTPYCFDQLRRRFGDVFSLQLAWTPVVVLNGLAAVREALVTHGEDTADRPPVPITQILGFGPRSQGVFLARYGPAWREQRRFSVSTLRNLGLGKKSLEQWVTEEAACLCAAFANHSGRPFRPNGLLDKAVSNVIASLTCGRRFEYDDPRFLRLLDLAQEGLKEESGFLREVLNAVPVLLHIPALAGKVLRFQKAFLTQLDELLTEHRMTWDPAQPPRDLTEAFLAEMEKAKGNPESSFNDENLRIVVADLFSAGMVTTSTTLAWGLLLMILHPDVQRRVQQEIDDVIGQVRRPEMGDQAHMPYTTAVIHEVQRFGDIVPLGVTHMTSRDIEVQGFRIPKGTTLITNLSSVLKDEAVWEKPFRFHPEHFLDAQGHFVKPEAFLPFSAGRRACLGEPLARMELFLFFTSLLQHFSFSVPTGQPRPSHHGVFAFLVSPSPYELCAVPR

[5] = target: T2, Cytochrome P450 3A4 (Homo sapiens, UniProt P08684); test: Inhibition of CYP3A4 using diethoxyfluorescein substrate; format: ADME
T2 sequence (P08684 whole entry): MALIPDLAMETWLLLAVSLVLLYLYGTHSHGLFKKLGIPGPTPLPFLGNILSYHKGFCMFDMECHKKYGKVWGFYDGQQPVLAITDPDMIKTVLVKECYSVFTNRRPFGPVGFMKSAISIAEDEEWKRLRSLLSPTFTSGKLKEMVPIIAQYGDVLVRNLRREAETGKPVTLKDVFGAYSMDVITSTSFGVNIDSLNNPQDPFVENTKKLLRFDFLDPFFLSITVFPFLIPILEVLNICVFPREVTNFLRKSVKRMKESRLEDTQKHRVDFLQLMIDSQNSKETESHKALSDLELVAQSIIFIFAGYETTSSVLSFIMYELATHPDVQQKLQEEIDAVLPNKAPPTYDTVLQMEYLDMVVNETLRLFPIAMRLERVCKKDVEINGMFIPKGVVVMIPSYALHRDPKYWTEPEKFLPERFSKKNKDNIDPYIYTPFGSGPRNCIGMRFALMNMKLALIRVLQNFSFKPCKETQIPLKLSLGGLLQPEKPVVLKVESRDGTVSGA

[6] = target: T2, Cytochrome P450 3A4; test: Inhibition of CYP3A4 using 7-benzyloxyquinoline substrate; format: ADME
[7] = target: CYP3A4 (Homo sapiens, UniProt P08684); test: Inhibition of CYP3A4 assessed as ratio of IC50 at 0 mins to IC50 at 10 mins using diethoxyfluorescein substrate; format: ADME; details: probe diethoxyfluorescein; read-out: Ratio IC50
CYP3A4, sequence (P08684 whole entry): as above

[8] = target: CYP2D6 (Homo sapiens, UniProt P10635); test: Inhibition of CYP2D6 assessed as ratio of IC50 at 0 mins to IC50 at 10 mins; format: ADME; details: read-out: Ratio IC50
CYP2D6, sequence (P10635 whole entry): as the sequence (P10635 whole entry) above

[9] = Intrinsic clearance in rat liver microsomes; format: ADME, Microsome
[10] = Intrinsic clearance in dog liver microsomes; format: ADME, Canis lupus familiaris, Microsome
[11] = Intrinsic clearance in human liver microsomes; format: ADME, Microsome
[12] = target: Cytochrome P450 2C9 (Homo sapiens, UniProt P11712)
Cytochrome P450 2C9, sequence (P11712 whole entry): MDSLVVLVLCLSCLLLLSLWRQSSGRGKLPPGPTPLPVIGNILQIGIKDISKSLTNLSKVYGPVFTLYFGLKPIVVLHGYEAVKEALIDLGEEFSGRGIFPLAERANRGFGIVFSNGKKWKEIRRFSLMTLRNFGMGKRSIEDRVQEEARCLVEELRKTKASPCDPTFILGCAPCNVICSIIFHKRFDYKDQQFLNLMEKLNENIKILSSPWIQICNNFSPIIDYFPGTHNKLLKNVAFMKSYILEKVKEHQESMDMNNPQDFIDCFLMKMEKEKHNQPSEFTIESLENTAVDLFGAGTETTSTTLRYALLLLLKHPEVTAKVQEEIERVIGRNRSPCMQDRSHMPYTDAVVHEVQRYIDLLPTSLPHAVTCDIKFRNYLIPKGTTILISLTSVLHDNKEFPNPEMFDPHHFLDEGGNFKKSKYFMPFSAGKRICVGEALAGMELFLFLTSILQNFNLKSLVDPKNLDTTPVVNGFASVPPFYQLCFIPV

[13] = Inhibition of H+/K+ ATPase in parietal cells assessed as inhibition of histamine-stimulated [14C]aminopyrine accumulation

In the case of `Cc1c(C)n(C[C@H]2C[C@@H]2C)c2c(OCc3ccc(F)cc3)nncc12`, the pIC50 [1] is reported as 6.8, the IC50 [2] is reported as 1.2 µM and the IC50 [3] is reported as 5.1 µM. The IC50 [4] was 4.4 µM, the IC50 [5] was 6 µM and the IC50 [6] was 14 µM. For the same molecule, the IC50 shift [7] was 1.2, the IC50 shift [8] was 0.6 and the CLint scaled [9] was 30 mL/min/kg. It also gave a CLint scaled [10] of 38 mL/min/kg, a CLint scaled [11] of 16 mL/min/kg and an IC50 [12] of 0.8 µM. The IC50 [13] was 0.282 µM.
